Data taken from patent publication US20040176431A1, “Antiproliferative 2-(sulfo-phenyl)-aminothiazole derivatives and pharmaceutical compositions, and methods for their use” (Pfizer, Inc., priority 2003, published 2004).

Molecular target: T1, CDK4/cyclin D3 (Homo sapiens, UniProt P11802)
T1 construct: made in house; host or cells: insect cells (baculovirus co-infection)
Experiment: Inhibition of CDK4/Cyclin D retinoblastoma kinase activity
Type: biochemical
Settings: for inhibition at 0.1 µM / % Inhib CDK4/D @ 0.1 μM: test compound at 0.1 μM; for inhibition at 0.1 µM: read-out: % Inhib CDK4/D @ 0.1 μM; for inhibition at 1 µM / % Inhib CDK4/D @ 1 μM: test compound at 1 μM (head line shifted: 'mM' printed beside 'Structure'); for inhibition at 1 µM: read-out: % Inhib CDK4/D @ 1 μM; for inhibition at 0.03 µM / % Inhib CDK4/D @ 0.03: test compound at 0.03 (unit cell empty, head line shifted; μM); for inhibition at 0.03 µM: read-out: % Inhib CDK4/D @ 0.03
Description: Cyclin-dependent kinase activity was measured by quantifying the enzyme-catalyzed, time-dependent incorporation of radioactive phosphate from [^32P]ATP or [^33P]ATP into a protein substrate. Unless noted otherwise, assays were performed in 96-well plates in a total volume of 50 μL, in the presence of 10 mM HEPES (N-[2-hydroxyethyl]piperazine-N′-[2-ethanesulfonic acid]) (pH 7.4), 10 mM MgCl2, 25 μM adenosine triphosphate (ATP), 1 mg/mL ovalbumin, 5 μg/mL leupeptin, 1 mM dithiothreitol, 10 mM β-glycerophosphate, 0.1 mM sodium vanadate, 1 mM sodium fluoride, 2.5 mM ethylene glycol-bis(β-aminoethyl ether)-N,N,N′N′-tetraacetic acid (EGTA), 2% (v/v) dimethylsulfoxide, and 0.03-0.4 μCi [^32/33P]ATP per reaction. Reactions were initiated with enzyme, incubated at 30° C., and terminated after 20 minutes by the addition of ethylenediaminetetraacetic acid (EDTA) to 250 mM. The phosphorylated substrate was then captured on a nitrocellulose or phosphocellulose membrane using a 96-well filtration manifold, and unincorporated radioactivity was removed by repeated washing with 0.85% phosphoric acid. Radioactivity was quantified by exposing the dried membranes to a phosphorimager.
Inhibition was measured relative to control wells that contained all reaction components including 2% (v/v) DMSO but no compound, after subtraction of background radioactivity measured in the absence of enzyme. Apparent Ki values of discrete compounds were measured by assaying enzyme activity in the presence of different inhibitor compound concentrations and subtracting the background radioactivity measured in the absence of enzyme. The kinetic parameters (kcat, Km for ATP) were measured for each enzyme under the usual assay conditions by determining the dependence of initial rates on ATP concentration. Inhibition data were fit to an equation for competitive inhibition using Kaleidagraph (Synergy Software), or were fit to an equation for competitive tight-binding inhibition using the software KineTic (BioKin, Ltd.).
A complex of human CDK4 and genetically truncated (1-264) cyclin D3 was purified using traditional biochemical chromatographic techniques from insect cells that had been co-infected with the corresponding baculovirus expression vectors (see e.g., Meijer and Kim, “Chemical Inhibitors of Cyclin-Dependent Kinases,” Methods in Enzymol., 283, 113-128 (1997)). The enzyme complex (5 nM) was assayed with 0.3-0.5 μg of purified recombinant retinoblastoma protein fragment (Rb) as a substrate. The engineered Rb fragment (residues 386-928 of the native retinoblastoma protein; 62.3 kDa) contains the majority of the phosphorylation sites found in the native 106-kDa protein, as well as a tag of six histidine residues for ease of purification. Phosphorylated Rb substrate was captured by microfiltration on a nitrocellulose membrane and quantified using a phosphorimager as described above. For measurement of tight-binding inhibitors, the assay duration was extended to 60 minutes, during which the time-dependence of product formation was linear and initial rate conditions were met.

T1 sequence (P11802 whole entry): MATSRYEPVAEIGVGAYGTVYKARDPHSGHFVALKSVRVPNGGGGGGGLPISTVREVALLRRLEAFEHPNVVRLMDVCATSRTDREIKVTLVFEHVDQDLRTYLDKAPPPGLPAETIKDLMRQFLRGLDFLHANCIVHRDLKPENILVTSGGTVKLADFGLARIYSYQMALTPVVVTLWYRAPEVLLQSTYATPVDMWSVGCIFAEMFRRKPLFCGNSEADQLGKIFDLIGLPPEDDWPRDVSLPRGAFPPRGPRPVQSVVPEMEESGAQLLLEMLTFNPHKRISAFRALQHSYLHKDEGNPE
T1 sequence (P30281 1-264 partner limits assumed): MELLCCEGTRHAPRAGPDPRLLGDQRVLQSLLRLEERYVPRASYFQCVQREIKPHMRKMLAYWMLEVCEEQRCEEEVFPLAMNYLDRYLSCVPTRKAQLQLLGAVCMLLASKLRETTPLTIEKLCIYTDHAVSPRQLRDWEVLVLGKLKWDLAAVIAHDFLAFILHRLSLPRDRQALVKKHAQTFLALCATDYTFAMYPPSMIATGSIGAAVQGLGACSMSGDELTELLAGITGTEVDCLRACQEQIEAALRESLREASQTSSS

Row | SMILES | inhibition at 0.1 µM | inhibition at 1 µM | inhibition at 0.03 µM | % Inhib CDK4/D @ 1 μM | % Inhib CDK4/D @ 0.03 | % Inhib CDK4/D @ 0.1 μM (0.1 µM) | % Inhib CDK4/D @ 0.1 μM
1 | CCOCCS(=O)(=O)c1ccc(Nc2nc(N)c(C(=O)c3c(Cl)cccc3Cl)s2)cc1 [DD(233)] | 11% | -12% | 8.4% |  |  |  | 
2 | COC(=O)C[S+]([O-])c1ccc(Nc2nc(N)c(C(=O)c3c(Cl)cccc3Cl)s2)cc1 (stereo not drawn) [DD(106)] | 45% | 66.8% | 1.7% |  |  |  | 
3 | CC(C)(CO)CS(=O)(=O)c1ccc(Nc2nc(N)c(C(=O)c3c(Cl)cccc3Cl)s2)cc1 [DD(200)] | 22% |  |  | 22.4% | −13% |  | 
4 | NC(=O)CCSc1ccc(Nc2nc(N)c(C(=O)c3c(Cl)cccc3Cl)s2)cc1 [DD(28)] | 51% | 86.8% | 19% |  |  |  | 
5 | Nc1nc(Nc2cccc(SCCO)c2)sc1C(=O)c1c(Cl)cccc1Cl [DD(69)] | 41% | 78.4% | 16% |  |  |  | 
6 | Nc1nc(Nc2cccc([S+]([O-])CC(O)CO)c2)sc1C(=O)c1c(Cl)cccc1Cl (stereo not drawn) [DD(154)] | 60% | 73.5% | 31% |  |  |  | 
7 | CN(C)CCCS(=O)(=O)c1ccc(N(C)c2nc(N)c(C(=O)c3c(Cl)cccc3Cl)s2)cc1 [DD(210)] | 21% | -37% | -22% |  |  |  | 
8 | Nc1nc(Nc2ccc(S(=O)(=O)CCN3CCCC3)cc2)sc1C(=O)c1c(Cl)cccc1Cl [DD(167)] |  |  |  | 0.8% | −2.5% | 17% | 
9 | CN1CCCC(CSc2cccc(Nc3nc(N)c(C(=O)c4c(Cl)cccc4Cl)s3)c2)C1 (stereo not drawn) [DD(67)] | 14% | 49.1% | 4.3% |  |  |  | 
10 | CC(C)=CC[S+]([O-])c1ccc(Nc2nc(N)c(C(=O)c3c(Cl)cccc3Cl)s2)cc1 (stereo not drawn) [DD(104)] | 14% | 36.4% | -38% |  |  |  | 
11 | CC(C)CCS(=O)(=O)c1ccc(Nc2nc(N)c(C(=O)c3c(Cl)cccc3Cl)s2)cc1 [DD(213)] |  |  |  | −11% | −22% | 14% | 
12 | COc1cccc(C[S+]([O-])c2cccc(Nc3nc(N)c(C(=O)c4c(Cl)cccc4Cl)s3)c2)c1 (stereo not drawn) [DD(137)] | 22% | 36.7% | -1.7% |  |  |  | 
13 | C=CCCSc1ccc(Nc2nc(N)c(C(=O)c3c(Cl)cccc3Cl)s2)cc1 [DD(6)] | 20% | 48% | 22% |  |  |  | 
14 | Nc1nc(Nc2ccc(SCCN3CCCC3)cc2)sc1C(=O)c1c(Cl)cccc1Cl [DD(7)] | 31% | 55% | 11% |  |  |  | 
15 | Nc1nc(Nc2ccc([S+]([O-])CCN3CCCCC3)cc2)sc1C(=O)c1c(Cl)cccc1Cl (stereo not drawn) [DD(91)] | 24% | 68.2% | -6.3% |  |  |  | 
16 | CC(C)=CCS(=O)(=O)c1ccc(Nc2nc(N)c(C(=O)c3c(Cl)cccc3Cl)s2)cc1 [DD(224)] |  |  |  | 9.8% | −2.6% | 12% | 
17 | Nc1nc(Nc2ccc(S(=O)(=O)CCCO)cc2)sc1C(=O)c1c(Cl)cccc1Cl [DD(205)] |  |  |  | 56.4% | −4.1% | 43% | 
18 | CC(C)CCOC(=O)C[S+]([O-])c1ccc(Nc2nc(N)c(C(=O)c3c(Cl)cccc3Cl)s2)cc1 (stereo not drawn) [DD(111)] | 32% | 64.8% | -1.7% |  |  |  | 
19 | Nc1nc(Nc2ccc(SCC(=O)Nc3ccccc3)cc2)sc1C(=O)c1c(Cl)cccc1Cl [DD(15)] | 53% | 82% | 38% |  |  |  | 
20 | CC(C)CCOC(=O)CSc1cccc(Nc2nc(N)c(C(=O)c3c(Cl)cccc3Cl)s2)c1 [DD(71)] | 6.9% | 36% | 77% |  |  |  | 

Row | SMILES | inhibition at 0.1 µM | inhibition at 1 µM | inhibition at 0.03 µM | % Inhib CDK4/D @ 1 μM | % Inhib CDK4/D @ 0.03 | % Inhib CDK4/D @ 0.1 μM (0.1 µM) | % Inhib CDK4/D @ 0.1 μM
21 | COC(=O)C[S+]([O-])c1cccc(Nc2nc(N)c(C(=O)c3c(Cl)cccc3Cl)s2)c1 (stereo not drawn) [DD(146)] | 53% | 47.6% | 15% |  |  |  | 
22 | CC(C)CCCS(=O)(=O)c1ccc(Nc2nc(N)c(C(=O)c3c(Cl)cccc3Cl)s2)cc1 [DD(230)] |  |  |  | −1.6% | −17% | 20% | 
23 | CN(C)CCSc1ccc(Nc2nc(N)c(C(=O)c3c(Cl)cccc3Cl)s2)cc1 [DD(32)] | 14% | 61.3% | 5.5% |  |  |  | 
24 | COC(=O)/C=C/CS(=O)(=O)c1ccc(Nc2nc(N)c(C(=O)c3c(Cl)cccc3Cl)s2)cc1 [DD(204)] |  |  |  | 20.8% | −3.4% | 29% | 
25 | Nc1nc(Nc2ccc(S(=O)(=O)CCN3CCOCC3)cc2)sc1C(=O)c1c(Cl)cccc1Cl [DD(239)] |  |  |  | 8% | 12% | 27% | 
26 | Nc1nc(Nc2ccc(SCCN3CCOCC3)cc2)sc1C(=O)c1c(Cl)cccc1Cl [DD(39)] | 18% | 68.4% | 0.2% |  |  |  | 
27 | CC(C)OC(=O)CCS(=O)(=O)c1ccc(N(C)c2nc(N)c(C(=O)c3c(Cl)cccc3Cl)s2)cc1 [DD(238)] | 22% | 21.5% | -19% |  |  |  | 
28 | CCCS(=O)(=O)c1ccc(Nc2nc(N)c(C(=O)c3c(Cl)cccc3Cl)s2)cc1 [DD(185)] | 33% |  |  | 22.3% | 8.5% |  | 
29 | CC(C)OC(=O)C[S+]([O-])c1cccc(Nc2nc(N)c(C(=O)c3c(Cl)cccc3Cl)s2)c1 (stereo not drawn) [DD(143)] | 24% | 36.7% | 15% |  |  |  | 
30 | CC(=O)OCCSc1ccc(Nc2nc(N)c(C(=O)c3c(Cl)cccc3Cl)s2)cc1 [DD(37)] | 30% | 74.3% | 13% |  |  |  | 
31 | CC(C)=CCS(=O)(=O)c1ccc(Nc2nc(N)c(C(=O)c3c(Cl)cccc3Cl)s2)cc1 [DD(184)] | 9% |  |  | −3.3% | 1.6% |  | 
32 | Nc1nc(Nc2ccc(S(=O)(=O)CC3CC3)cc2)sc1C(=O)c1c(Cl)cccc1Cl [DD(216)] |  |  |  | 47.1% | 12% | 20% | 
33 | CC(=O)OCCSc1cccc(Nc2nc(N)c(C(=O)c3c(Cl)cccc3Cl)s2)c1 [DD(77)] | 30% | 71.9% | 23% |  |  |  | 
34 | Nc1nc(Nc2ccc(S(=O)(=O)CCN3CCCCC3)cc2)sc1C(=O)c1c(Cl)cccc1Cl [DD(211)] |  |  |  | −0.2% | −11% |  | 21%
35 | CC(C)OC(=O)CSc1ccc(Nc2nc(N)c(C(=O)c3c(Cl)cccc3Cl)s2)cc1 [DD(23)] | 37% | 72.1% | 19% |  |  |  | 
36 | CC1(CS(=O)(=O)c2ccc(Nc3nc(N)c(C(=O)c4c(Cl)cccc4Cl)s3)cc2)CO1 (stereo not drawn) [DD(180)] |  |  |  | 4.2% | −14% | 13% | 
37 | Nc1nc(Nc2ccc(S(=O)(=O)CCN3CCCC3)cc2)sc1C(=O)c1c(Cl)cccc1Cl [DD(207)] |  |  |  | 36.8% | −9.9% | 41% | 
38 | Nc1nc(Nc2ccc([S+]([O-])CC(=O)Nc3ccccc3)cc2)sc1C(=O)c1c(Cl)cccc1Cl (stereo not drawn) [DD(95)] | 55% | 80.7% | 5.3% |  |  |  | 
39 | COc1cccc(CS(=O)(=O)c2ccc(Nc3nc(N)c(C(=O)c4c(Cl)cccc4Cl)s3)cc2)c1 [DD(177)] |  |  |  | 3.2% | −29% | 15% | 
40 | CC(C)CC[S+]([O-])c1cccc(Nc2nc(N)c(C(=O)c3c(Cl)cccc3Cl)s2)c1 (stereo not drawn) [DD(133)] | 28% | 24.3% | 14% |  |  |  | 
